According to paper PMC5451472, “Novel Locally Active Estrogens Accelerate Cutaneous Wound Healing-Part 2” (Scientific Reports, 2017):

Assays:
[1] = test system: ER transcriptional activity; assay: In vivo BLI time course in wounded ovariectomized ERE-Luc mice, compounds s.c. around the wound; design: species or system mouse
Method: To study the estrogenic and healing properties of the two compounds, we generated a wound in the ERE-Luc mouse model and tested the activity of the two compounds administered s.c. in the area surrounding the wound as described in the methodology section.
Each group was composed of 4 ERE-Luc females’ mice ovariectomized 2 weeks’ prior the experiment to avoid any interference due to endogenous estrogens. Photon emission was measured in the living animals three times: at 0, 3 and 6 h after s.c. injection.
(§1) ERE-Luc and MITO-Luc mice were ovariectomized at two months of age; the experiment was done 2 weeks after surgery to allow the animals to recover and to decrease the levels of circulating estrogens. The animals were fed ad libitum with a special estrogen free diet (AIN 93 M, Mucedola) (Ciana et al. Endocrinology 2005) and housed in individually ventilated plastic cages within a temperature range of 22–25 °C, relative humidity of 50% ± 10% and under an automatic cycle of 12 h light/dark (lights on at 07:00 am). All animal experimentation was carried out in accordance with the ARRIVE and European Guidelines for Animal Care. All animal experiments were approved by the Italian Ministry of Research and University and controlled by a Departmental panel of experts. For the correct dosage of the compounds, the body weight of the animals (on empty stomach, fasted for at least 12–14 hours) was determined immediately before the treatment.
(§2) Ovariectomy was carried out as previously described. Wound healing was done after shaving by VEET depilatory cream a day before the treatment. The 1 cm full-thickness incisional wound was made through the skin and panniculus carnosus muscle of ovariectomized MITO-luc using a surgical scalpel (blade n°10, carbon steel, Swann-Morton Ltd). Round full-thickness wounds were done by cutting out a section of full-thickness skin (around 9 mm in diameter) using fine scissors on the dorsal skin of the isoflurane-anesthetized animal. For in vivo treatment the compounds were administered onto the subcutaneous area surrounding the wound by multiple subcutaneous injection, immediately after the generation of the wound.
(§3) For the semi-quantitative analysis of in vivo photon emission, animals were injected i.p. with 80 mg/kg of luciferin (Beetle Luciferin Potassium Salt; Promega, Madison, WI, USA) 15 min prior the imaging session. For the imaging, mice were anaesthetized using isofluorane (Isofluorane-Vet; Merial, Lyon, France) and kept under anesthesia during the 5 minutes of the session carried out with a CCD camera: both ventral and dorsal acquisition (Xenogen IVIS Lumina System; Caliper, PerkinElmer company). Photon emission in selected body areas was measured using the Living Image Software (Caliper, PerkinElmer company). The analysis was done in ventral view: whole body, thymus, hepatic area, abdomen, limbs, vagina and in dorsal view in wound area and expressed as photon/second/cm2/steradiant (p/s/cm2/sr).

[2] = test system: ERE-Luc mice; assay: Uterus weight of ERE-Luc mice; assay type: in vivo, mouse; conditions: 200 µg/kg s.c., 6 h after treatment, n = 4
Description: The final study aiming at investigating the systemic effect of the NCE was done by measuring the uterus weight of all treated animal as the golden standard for the quantitative measure of estrogenic compounds.

[3] = test system: MITO-Luc mice (reporter of mitosis); assay: Proliferation in the wound area, in vivo BLI of MITO-Luc mice; design: species or system mouse
Description: Wound healing is a dynamic process consisting of four continuous, overlapping, and precisely programmed phases: hemostasis, inflammation, proliferation and tissue growth (proliferation) and remodeling (maturation). The healing effect of estrogens may be exerted at several levels, certainly the ability of the hormone to accelerate macrophage polarization towards the M2-reparative polarization stage plays a relevant role, however estrogens may also facilitate local cell proliferation and the formation of the granulation tissue, epithelialization, and wound contraction.
The experiments were done with the 1e compound as completely deprived of any activity on the uterus (Fig. 6). […] Photon emission was measured in the wound area at the following time: 0, 24, 48 and 72 hours post-treatment.
as §1
as §2, with “For in vivo treatment the compounds were administered onto the subcutaneous area surrounding the wound by multiple subcutaneous injection, immediately after the generation of the wound.” left out
For the semi-quantitative analysis of in vivo photon emission, animals were injected i.p. with 80 mg/kg of luciferin (Beetle Luciferin Potassium Salt; Promega, Madison, WI, USA) 15 min prior the imaging session. […] Photon emission in selected body areas was measured using the Living Image Software (Caliper, PerkinElmer company). The analysis was done in ventral view: whole body, thymus, hepatic area, abdomen, limbs, vagina and in dorsal view in wound area and expressed as photon/second/cm2/steradiant (p/s/cm2/sr).

[4] = test system: MITO-Luc mice; assay: Granulation tissue histoscore of round full-thickness wound at day 10; assay type: in vivo, mouse; conditions: 200 µg/kg s.c., day 10, round wound, scale 1-3 (vehicle 0.3)
Method: The measure of photon emission from the wound area was done for several days after the wounding. 3 days after treatment the bioluminescent signal is highest (Fig. 10 Panel a).
as §2
At the time of euthanasia, the wounds with surrounding healthy tissue were excised, distended on a strip of hard paper and fixed in 10% buffered formalin (pH = 6). […] For histopathological examination 4 µm sections were routinely stained with Hematoxylin-Eosin (HE) and evaluated under a light microscope. The degree of re-epithelialization, the type and amount of granulation tissue and inflammation, which are the main features of wound healing, were scored separately. […]

[5] = test system: ER transcriptional activity; assay: Whole body in vivo bioluminescence imaging of ERE-Luc mice, dose-response after s.c. administration; design: species or system mouse; conditions: for Photon Emission, whole body: 6 h vs 0 h, n = 4
Description: To investigate the activity of 1e and 1f at systemic level, we utilized the ERE-Luc reporter mice. The ERE-luc is a transgenic model obtained by random integration of a luciferase reporter driven by an estrogen-responsive promoter. The ubiquitous, regulated expression of luciferase was obtained by flanking the reporter construct with insulators.
Here, the first study we carried out was a large-range dose-response analysis to measure whole body luciferase assay after subcutaneous administration of: (1) the vehicle; (2) corn oil as control; (3) the two compounds 1e and 1f at the dosage of 20 μg/kg, 200 μg/kg, 2 mg/kg and 20 mg/kg. The mice (4 for each experimental group) were subjected to in vivo whole body imaging 6 h after the pharmacological treatment. This time was selected on the basis of previous studies showing that the peak of ER transcriptional activation generally occurs at 6–8 h after administration of the estrogenic compounds[16], [17].
as §3

## CCCCOC(=O)CCC#C[C@]1(O)CC[C@H]2[C@@H]3CCc4cc(O)ccc4[C@H]3CC[C@@]21C [1e, 3,17β-Hydroxy-17α-(4′carbobutoxy-1′-butyn-1′-yl)estra-1,3,5-(10)-triene]
[1]; 200 µg/kg s.c. around wound, 3 or 6 h, ovx mice
  photon emission in body areas (whole body, thymus, hepatic area, abdomen, limbs, vagina): did not observe increased photon emission in any of the body areas
[1]; 200 µg/kg s.c., 6 hours, trend
  increase of photon emission in the wound area with respect to time 0: 30%
[2]
  weight of the uterus versus controls: indistinguishable from controls
[3]; 200 µg/kg s.c. around wound, 72 h versus time 0, ovx MITO-Luc
  increase of photon emission from wound: 87%
[3]; 200 µg/kg s.c., 48 hours after administration
  photon emission from the wound area: significantly increased
[4]
  Score of granulation tissue (fibrosis), histoscore mean: 1.5
[5]; 2 mg/kg s.c.
  Photon Emission, whole body: 3 x
[5]; 20 mg/kg s.c.
  Photon Emission, whole body: 12 x
[5]; 2 and 20 mg/kg s.c., 6 h
  expression of the luciferase reporter: induced the expression of the luciferase reporter around the area of subcutaneous injection and in some other body areas
[5]; 20 and 200 μg/kg s.c., 6 h
  effect at systemic level (whole body luciferase): did not induce any measurable effect
